Assays:
Format in all cases: in vivo
[1] = system: ryegrass, Italian (Italian ryegrass, Lolium multiflorum); test: Test A postemergence; details: Lolium multiflorum, post-emergence, 240 h, read-out: Ryegrass, Italian plant response rating (0 to 100 scale)
Outline: (§1)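 Visual injury, scored on a 0–100 scale relative to untreated controls, was recorded about 10 d after application. Treatments were a preemergence soil spray over planted seeds or a postemergence spray on plants at the one- to two-leaf stage, 2 to 10 cm tall, all in loam soil–sand blend in the greenhouse.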

[2] = system: wheat (Triticum aestivum); test: Test A postemergence; details: Triticum aestivum, post-emergence, 240 h, Postemergence, 31 g ai/ha; 0 is no effect, 100 is complete control; read-out: Wheat plant response rating (0 to 100 scale)
Outline: as §1

[3] = system: pigweed (Amaranthus retroflexus); test: Test A postemergence; details: Amaranthus retroflexus, post-emergence, 240 h, read-out: Pigweed plant response rating (0 to 100 scale)
Outline: as §1

[4] = system: giant foxtail (Setaria faberii); test: Test A postemergence; details: Setaria faberi, post-emergence, 240 h, read-out: Foxtail, Giant plant response rating (0 to 100 scale)
Outline: as §1

[5] = system: blackgrass (Alopecurus myosuroides); test: Test A postemergence; details: Alopecurus myosuroides, post-emergence, 240 h, read-out: Blackgrass plant response rating (0 to 100 scale)
Outline: as §1

[6] = system: barnyardgrass (Echinochloa crus-galli); test: Test A postemergence; details: Echinochloa crus-galli, post-emergence, 240 h, read-out: Barnyardgrass plant response rating (0 to 100 scale)
Outline: as §1

[7] = system: Galium (catchweed bedstraw, Galium aparine); test: Test A postemergence; details: Galium, post-emergence, 240 h, read-out: Galium plant response rating (0 to 100 scale)
Outline: as §1

[8] = system: corn (Zea mays); test: Test A postemergence; details: Zea mays, post-emergence, 240 h, read-out: Corn plant response rating (0 to 100 scale)
Outline: as §1

[9] = system: ragweed (common ragweed, Ambrosia elatior); test: Test A postemergence; details: Ambrosia artemisiifolia, post-emergence, 240 h, read-out: Ragweed plant response rating (0 to 100 scale)
Outline: as §1

[10] = system: Kochia (Kochia scoparia); test: Test A postemergence; details: Bassia scoparia, post-emergence, 240 h, read-out: Kochia plant response rating (0 to 100 scale)
Outline: as §1

[11] = system: sedge, umbrella (small-flower umbrella sedge, Cyperus difformis); test: Test B flooded paddy test; details: Cyperus difformis, 250 g ai/ha, Flood; 0 to 100 scale where 0 is no effect and 100 is complete control; read-out: Sedge, Umbrella plant response rating
Outline: (§2)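 Visual ratings (0 none to 100 complete control) are relative to untreated plants, taken 13–15 d after treatment in a greenhouse. Test material went straight into floodwater standing 3 cm above the soil, kept constant, on plants at the 2-leaf stage.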

[12] = system: rice (Oryra sativa); test: Test B flooded paddy test; details: Oryza sativa, 250 g ai/ha, Flood; 0 to 100 scale where 0 is no effect and 100 is complete control; read-out: Rice plant response rating
Outline: as §2

[13] = system: barnyardgrass (Echinochloa crus-galli); test: Test B flooded paddy test; details: Echinochloa crus-galli, 250 g ai/ha, Flood; 0 to 100 scale where 0 is no effect and 100 is complete control; read-out: Barnyardgrass plant response rating
Outline: as §2

[14] = system: ducksalad (Heteranthera limosa); test: Test B flooded paddy test; details: Heteranthera limosa, 250 g ai/ha, Flood; 0 to 100 scale where 0 is no effect and 100 is complete control; read-out: Ducksalad plant response rating
Outline: as §2

[15] = system: ryegrass, Italian (Italian ryegrass, Lolium multiflorum); test: Test A preemergence; details: Lolium multiflorum, pre-emergence, 240 h, 0 to 100 scale where 0 is no effect and 100 is complete control, read-out: Ryegrass, Italian plant response rating
Outline: as §1

[16] = system: pigweed (Amaranthus retroflexus); test: Test A preemergence; details: Amaranthus retroflexus, pre-emergence, 240 h, 0 to 100 scale where 0 is no effect and 100 is complete control, read-out: Pigweed plant response rating
[17] = system: giant foxtail (Setaria faberii); test: Test A preemergence; details: Setaria faberi, pre-emergence, 240 h, 0 to 100 scale where 0 is no effect and 100 is complete control, read-out: Foxtail, Giant plant response rating
Outline: as §1

[18] = system: barnyardgrass (Echinochloa crus-galli); test: Test A preemergence; details: Echinochloa crus-galli, pre-emergence, 240 h, 0 to 100 scale where 0 is no effect and 100 is complete control, read-out: Barnyardgrass plant response rating
Outline: as §1

[19] = system: ragweed (common ragweed, Ambrosia elatior); test: Test A preemergence; details: Ambrosia artemisiifolia, pre-emergence, 240 h, 0 to 100 scale where 0 is no effect and 100 is complete control, read-out: Ragweed plant response rating
Outline: as §1

[20] = system: Kochia (Kochia scoparia); test: Test A preemergence; details: Bassia scoparia, pre-emergence, 240 h, 0 to 100 scale where 0 is no effect and 100 is complete control, read-out: Kochia plant response rating
Outline: as §1

[21] = 125 g ai/ha, postemergence, visual injury vs untreated controls after approx. 10 d, 0 = no effect, 100 = complete control
[22] = Postemergence, 31 g ai/ha, 0 is no effect, 100 is complete control
[23] = 125 g ai/ha, preemergence, visual injury rating, approximately 10 d

Cn1ccc2ccc([C@H]3CNC(=O)[C@@H]3C(=O)Nc3ccccc3F)cc21 [Compound 1264]
0%: pest or weed control at 125 g/ha [1, 21] | pest or weed control at 31 g/ha [1, 22] | plant injury at 31 g/ha [2] | pest or weed control at 125 g/ha [3, 21] | pest or weed control at 31 g/ha [3, 22] | pest or weed control at 125 g/ha [4, 21] | pest or weed control at 31 g/ha [4, 22] | pest or weed control at 125 g/ha [5, 21] | pest or weed control at 31 g/ha [5, 22] | pest or weed control at 125 g/ha [6, 21] | pest or weed control at 31 g/ha [6, 22] | pest or weed control at 125 g/ha [7, 21] | pest or weed control at 31 g/ha [7, 22] | plant injury at 125 g/ha [8, 21] | plant injury at 31 g/ha [8, 22] | pest or weed control at 125 g/ha [9, 21] | pest or weed control at 31 g/ha [9, 22] | pest or weed control at 125 g/ha [10, 21] | pest or weed control at 31 g/ha [10, 22] | pest or weed control at 250 g/ha [11] | pest or weed control at 250 g/ha [12] | pest or weed control at 250 g/ha [13] | pest or weed control at 250 g/ha [14] | pest or weed control at 31 g/ha ([15]; 31 g ai/ha, Preemergence) | pest or weed control at 125 g/ha [15, 23] | pest or weed control at 31 g/ha ([16]; 31 g ai/ha, Preemergence) | pest or weed control at 125 g/ha [16, 23] | pest or weed control at 31 g/ha ([17]; 31 g ai/ha, Preemergence) | pest or weed control at 125 g/ha [17, 23] | pest or weed control at 31 g/ha ([18]; 31 g ai/ha, Preemergence) | pest or weed control at 125 g/ha [18, 23] | pest or weed control at 31 g/ha ([19]; 31 g ai/ha, Preemergence) | pest or weed control at 125 g/ha [19, 23] | pest or weed control at 31 g/ha ([20]; 31 g ai/ha, Preemergence) | pest or weed control at 125 g/ha [20, 23]

Source: patent publication US12077503B2, “Substituted cyclic amides and their use as herbicides” (FMC CORPORATION, priority 2015, dated 2024)
